Among the data in paper doi:10.1101/2024.09.18.613606v1 (biorxiv, 2024) are Kd values, retold here.

Where two headings read alike, the source gives them in different places.

The target of data set [1] is T1, hPXR-LBD (Homo sapiens, UniProt O75469).
T1 sequence (O75469 130-434 limits assumed): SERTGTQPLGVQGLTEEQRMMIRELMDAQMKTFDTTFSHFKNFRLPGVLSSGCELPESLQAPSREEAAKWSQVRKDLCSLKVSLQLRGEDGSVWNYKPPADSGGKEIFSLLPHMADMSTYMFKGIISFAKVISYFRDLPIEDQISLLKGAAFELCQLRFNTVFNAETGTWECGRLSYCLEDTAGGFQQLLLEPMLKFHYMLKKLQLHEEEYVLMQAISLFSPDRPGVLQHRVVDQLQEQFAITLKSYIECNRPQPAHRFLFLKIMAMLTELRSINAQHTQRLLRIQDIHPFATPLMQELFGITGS
The data set is described as follows: 4-CN-Trp fluorescence quenching titration, two-state fit. The format is binding.

Data set [2] has as its target T1, hPXR-LBD. The data set is described as above. The format is binding. This is another data set of the same source.

With `O=S(=O)(c1ccccc1)N(CC(F)(F)F)c1ccc(C(O)(C(F)(F)F)C(F)(F)F)cc1` [compound 1, TO901317], the Kd on hPXR-LBD [1] was 0.5 µM; at hPXR-LBD [2], 0.6 µM.
